Entries after “also recorded” stand apart in the source; their conditions may differ.
What was measured:
[1] = target: T1, Arabidopsis TGD2, N-terminally truncated TGD2-dTMD-His (from Gly-119) (Arabidopsis thaliana, UniProt Q9LTR2); experiment: Membrane lipid binding assay, TGD2-dTMD-His; settings: lipid membranes, FIG. 8A
T1 sequence (Q9LTR2 119-381): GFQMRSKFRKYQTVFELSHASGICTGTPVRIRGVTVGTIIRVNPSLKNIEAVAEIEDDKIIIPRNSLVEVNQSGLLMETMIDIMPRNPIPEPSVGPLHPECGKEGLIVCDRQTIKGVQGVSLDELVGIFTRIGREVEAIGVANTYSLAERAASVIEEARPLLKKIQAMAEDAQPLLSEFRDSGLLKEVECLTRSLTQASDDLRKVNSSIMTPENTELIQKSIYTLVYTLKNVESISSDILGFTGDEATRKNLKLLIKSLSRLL
Method: Commercially available membrane strips prespotted with lipids were purchased. (Echelon Biosciences, Salt Lake City, Utah). Prokaryotic phosphatidylcholine and PA were also purchased (Avanti Polar Lipids). Prokaryotic monogalactolipid, digalactolipid, sulfolipid, and phosphatidylglycerol were purified from Synechocystis PCC6803 by TLC of lipid extracts. Eukaryotic monogalactolipid and digalactolipid was isolated from pea leaves.
Approximately 5 μg of lipids were spotted onto a Hybond-C membrane (Amersham Pharmacia Biosciences). The membranes were first blocked with 3% BSA in TBST (10 mM Tris-HCl, pH 8.0/150 mM NaCl/0.1% Tween 20) for 1 h and incubated in 0.5 μg/ml TGD2 protein solution in the blocking buffer at 4° C. overnight. The blots were washed five times with TBST and soaked in 3% BSA in TBST with a Penta-His mouse monoclonal antibody (Qiagen) at a 1:1,000 dilution at room temperature overnight. The membranes were washed twice with TBST and soaked in 3% BSA in TBST with alkaline phosphatase-conjugated anti-mouse antibody (Jackson ImmunoResearch) at a 1:5,000 dilution for 1 hour at room temperature. After washing with TBST twice, the protein was detected by using the Immun-Star AP detection system (Bio-Rad).

[2] = target: T2, Arabidopsis TGD2, DsRed-TGD2C minimal domain (DR-25, TGD2C T8, residues 201-225, SEQ ID NO:12) (Arabidopsis thaliana, UniProt Q9LTR2); experiment: Liposome-association assay, minimal domain DR-25; format: binding
T2 sequence (Q9LTR2 201-225): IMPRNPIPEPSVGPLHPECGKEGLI
Method: (§1) The liposome association assay was performed as previously reported. (31). Briefly, lipids (dioleoyl-phosphatidylcholine, DOPC or dioleoyl-PA, DOPA) were incubated in TBS (50 mM Tris-HCl, pH 7; 0.1 M NaCl) at 37° C. for an hour followed by vigorous vortexing for 5 min. The liposomes were precipitated at 20,000 g and washed twice with ice-cold TBS.
(§2) Liposomes (200 μg) were mixed with purified DsRed-TGD2 fusion protein and TBS to make a final 100 μL solution. The mixture was incubated at 30° C. for 30 min and washed twice with ice-cold TBS by centrifugation at 20,000 g at 4° C. The liposome pellet mixed with sample buffer was analyzed by SDS-PAGE (28). Immuno-detection of the His-tagged protein was accomplished using the above mentioned Penta-His antibody at 1:15,000 and the anti mouse antibody at 1:75,000 dilution.
(§3) The protein band was visualized by chemiluminescent detection kit from Sigma. The autoradiography film was scanned, distinct protein bands were quantified using computer software Multi Gauge V3.0 (Fujifilm USA, Valhalla, N.Y.) and resulted data were plotted and analyzed by OriginPro8 (Origin lab corporation, Northampton, Mass.).

[3] = target: T3, Arabidopsis TGD2, DsRed-TGD2C WT (DR-WT) fusion protein, residues 119-381, SEQ ID NO:107 (Arabidopsis thaliana, UniProt Q9LTR2); experiment: Liposome-association assay (mixed PA/PC liposomes), DsRed-TGD2C WT; format: binding
T3 construct: made in house; host or cells: Escherichia coli BL21 (DE3)
T3 sequence (Q9LTR2 119-381): T1 sequence (Q9LTR2 119-381)
Method: FIG. 2A: Analysis by liposome-association assay. A mixture of dioleoyl-PA and dioleoyl-PC was used where the weight percent of PA was varied from 0-100% (wt/wt), maintaining the total lipid invariant at 250 μg. 1 μg protein was used. P, protein recovered in the absence of lipids.
In this assay, purified recombinant proteins were incubated with liposomes for 30 min at 30° C. before centrifugation at 20,000 g for 10 min to pellet the liposomes. Proteins bound to the liposomes were found associated with the lipid pellet, whereas non-binding proteins remained in the supernatant. In an effort to determine the optimal concentration of PA required for high specificity binding, a PA/PC liposome mixture containing varying weight fractions of PA was prepared and incubated with DsRed-TGD2CWT or DsRed alone.
as §1, §2, §3

[4] = target: T4, Arabidopsis TGD2, DsRed-TGD2C WT fusion protein, residues 119-381, SEQ ID NO:107 (Arabidopsis thaliana, UniProt Q9LTR2); experiment: Protein-lipid overlay assay, DsRed-TGD2C WT; format: binding; settings: commercial phospholipid membrane strip
T4 sequence (Q9LTR2 121-381): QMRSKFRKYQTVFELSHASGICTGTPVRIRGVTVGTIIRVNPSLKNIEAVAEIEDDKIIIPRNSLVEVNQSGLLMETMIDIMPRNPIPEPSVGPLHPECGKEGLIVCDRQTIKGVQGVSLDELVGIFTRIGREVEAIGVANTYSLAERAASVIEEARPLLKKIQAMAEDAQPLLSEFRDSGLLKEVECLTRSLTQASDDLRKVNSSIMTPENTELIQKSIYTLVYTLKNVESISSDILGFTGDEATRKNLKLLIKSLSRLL
Method: Membrane lipid strips were purchased from Echelon Biosciences (Salt Lake City, Utah). The strips were first blocked with 3% bovine serum albumin in TBST (10 mM Tris-HCl, pH 8.0, 150 mM NaCl, and 0.25% Tween-20) for two hours and incubated in 0.5 μg/mL DsRed-TGD2 fusion protein solution in the blocking buffer at 4° C. overnight. The strips were washed 10 min for 3 times with TBST the next day and soaked in 3% bovine serum albumin in TBST with a Penta-His mouse monoclonal antibody (Sigma-Aldrich, St. Louis, Mo.) at 1:2,000 dilution at 4° C. overnight. The strips were washed twice with TBST and soaked in 3% bovine serum albumin in TBST with horseradish peroxidase-conjugated anti mouse antibody (Bio-Rad, Hercules, Calif.) at 1:20,000 dilution for an hour at room temperature. Following washing with TBST for 1 hour, the protein was detected by using the chemiluminescent detection system (Sigma-Aldrich).

[5] = target: T5, Arabidopsis TGD2, DsRed-TGD2C T5 (residues 119-300, SEQ ID NO:28) (Arabidopsis thaliana, UniProt Q9LTR2); experiment: Liposome-association assay, TGD2C T5 (119-300); format: binding; settings: FIG. 3C
T5 sequence (Q9LTR2 119-300): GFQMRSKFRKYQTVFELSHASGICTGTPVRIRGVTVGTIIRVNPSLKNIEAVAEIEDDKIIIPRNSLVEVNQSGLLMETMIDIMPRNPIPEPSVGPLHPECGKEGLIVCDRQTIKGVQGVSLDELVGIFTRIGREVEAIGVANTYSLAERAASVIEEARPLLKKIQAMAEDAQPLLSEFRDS
Method: as §1, §2, §3

[6] = DR-WT as quantification control, mixed PA/PC liposomes, FIGS. 5A-5C

Question: How did the binding of lipids [1] turn out when `CCCCCCCC/C=C\CCCCCCCC(=O)OC[C@H](COP(=O)(O)O)OC(=O)CCCCCCC/C=C\CCCCCCCC` [PA, phosphatidic acid] was run?
Answer: bound

Question: What about the PA binding ([2]; PA liposomes, FIG. 4A) of the same molecule?
Answer: sufficient to mediate specific binding to PA

Question: What about the “cooperativity of PA binding” value ([2]; mixed PA/PC liposomes, FIG. 5) of the same molecule?
Answer: loses positive cooperativity; also recorded: not cooperative

Question: And the “Hill number, PA binding” value [3, 6]?
Answer: 2.8

Question: What about the “modified Kd, PA binding” value [3, 6] of the same molecule?
Answer: 37.66 mol %

Question: What about the “binding to PA or PC” value ([3]; PC, PA/PC or PA liposomes, FIG. 3B) of the same molecule?
Answer: significant binding

Question: What about the “Hill number, PA binding” value ([3]; dioleoyl-PA/dioleoyl-PC liposomes, FIG. 2B) of the same molecule?
Answer: 5.8

Question: What about the “binding to lipids on membrane strip” value [4] of the same molecule?
Answer: shows specificity for PA over other lipids

Question: What about the PA binding [5] of the same molecule?
Answer: strong binding

— patent publication US8629251B2, “Specific detection and quantification of phosphatidic acid using an Arabidopsis trigalactosyldiacylglycerol-4 (TGD4) protein” (Board of Trustees of Michigan State University, priority 2008, dated 2014)
